PubChem BioAssay AID1259411 (Chemical Carcinogenesis Research Information System (CCRIS), 2018)
Active and inactive are the calls of the source. How the calls were made is not given here.

System: rodent carcinogenicity bioassays, tumor incidence
Experiment: CCRIS carcinogenicity studies
In short: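 NCI-built, expert-reviewed records of carcinogenicity and related test outcomes (mutagenicity, tumor promotion/inhibition) compiled from published and report sources, historical span 1985-2011, not updated.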

CN1CCCC1=O
carcinogen call (Species: MOUSE, Strain/Sex: B6C3F1/FEMALE, Route: ORAL, Dose: 0, 600, 1200, 7200 PPM IN DIET FOR 18 MO (STUDY DURATION: 18 MO), Dose: 0, 600, 1200, 7200 PPM IN DIET FOR 18 MO (STUDY DURATION: 18 MO), Tumor Site: Type of Lesion: LIVER: HEPATOCELLULAR ADENOMA, HEPATOCELLULAR CARCINOMA): active; positive | carcinogen call (Species: MOUSE, Strain/Sex: B6C3F1/MALE, Route: ORAL, Dose: 0, 600, 1200, 7200 PPM IN DIET FOR 18 MO (STUDY DURATION: 18 MO), Dose: 0, 600, 1200, 7200 PPM IN DIET FOR 18 MO (STUDY DURATION: 18 MO), Tumor Site: Type of Lesion: LIVER: HEPATOCELLULAR ADENOMA, HEPATOCELLULAR CARCINOMA): active; positive | carcinogen call (Species: RAT, Strain/Sex: CD-1/FEMALE, Route: INHALATION, Dose: 0, 0.04, 0.4 MG/L 6 HR/D 5D/WK FOR 2 YR (STUDY DURATION: 2 YR), Dose: 0, 0.04, 0.4 MG/L 6 HR/D 5D/WK FOR 2 YR (STUDY DURATION: 2 YR)): inactive; negative | carcinogen call (Species: RAT, Strain/Sex: CD-1/FEMALE, Route: ORAL, Dose: 0, 1600, 5000, 15000 PPM IN DIET FOR 2 YR (STUDY DURATION: 2 YR), Dose: 0, 1600, 5000, 15000 PPM IN DIET FOR 2 YR (STUDY DURATION: 2 YR)): inactive; negative | carcinogen call (Species: RAT, Strain/Sex: CD-1/MALE, Route: INHALATION, Dose: 0, 0.04, 0.4 MG/L 6 HR/D 5D/WK FOR 2 YR (STUDY DURATION: 2 YR), Dose: 0, 0.04, 0.4 MG/L 6 HR/D 5D/WK FOR 2 YR (STUDY DURATION: 2 YR)): inactive; negative | carcinogen call (Species: RAT, Strain/Sex: CD-1/MALE, Route: ORAL, Dose: 0, 1600, 5000, 15000 PPM IN DIET FOR 2 YR (STUDY DURATION: 2 YR), Dose: 0, 1600, 5000, 15000 PPM IN DIET FOR 2 YR (STUDY DURATION: 2 YR)): inactive; negative

Nc1cc(Cl)ccc1O
carcinogen call (Species: Rat, Strain/Sex: F344/DuCrlCrlj / Female, Route: Oral, Dose: 0, 1280, 3200, 8000 ppm in diet for 2 yr study duration, Dose: 0, 1280, 3200, 8000 ppm in diet for 2 yr study duration, Tumor Site: Type of Lesion: Forestomach: squamous cell papilloma/carcinoma): active; positive | carcinogen call (Species: Rat, Strain/Sex: F344/DuCrlCrlj / Male, Route: Oral, Dose: 0, 1280, 3200, 8000 ppm in diet for 2 yr study duration, Dose: 0, 1280, 3200, 8000 ppm in diet for 2 yr study duration, Tumor Site: Type of Lesion: Forestomach: squamous cell papilloma/carcinoma. Urinary bladder: papilloma/carcinoma): active; positive

C=CC(OCC)OCC
carcinogen call (Species: HAMSTER, Strain/Sex: SYRIAN/MALE, Route: GAVAGE, Dose: 0, 2 MG/WK FOR 54 OR 64 WK (STUDY DURATION: 92 WK)): inactive; negative | carcinogen call (Species: RAT, Strain/Sex: F344/FEMALE, Route: ORAL, Dose: 0, 470, 1200 MG/L IN DRINKING WATER 5 D/WK FOR 100 WK (STUDY DURATION: 130 WK), Dose: 0, 470, 1200 MG/L IN DRINKING WATER 5 D/WK FOR 100 WK (STUDY DURATION: 130 WK)): inactive; negative | carcinogen call (Species: RAT, Strain/Sex: F344/MALE, Route: ORAL, Dose: 0, 470, 1200 MG/L IN DRINKING WATER 5 D/WK FOR 100 WK (STUDY DURATION: 130 WK), Dose: 0, 470, 1200 MG/L IN DRINKING WATER 5 D/WK FOR 100 WK (STUDY DURATION: 130 WK)): inactive; negative

CCNNCC
carcinogen call (Species: RAT, Route: PRE-NATAL EXP, Tumor Site: Type of Lesion: BRAIN, NERVOUS SYSTEM): active; positive

CI
carcinogen call (Species: MOUSE, Route: INTRAPERITONEAL, Tumor Site: Type of Lesion: LUNG): active; positive | carcinogen call (Species: RAT, Route: SUBCUTANEOUS, Tumor Site: Type of Lesion: INJECTION SITE): active; positive | carcinogen call (Species: Rat, Strain/Sex: Crl:CD(SD)IGS BR/Female (50/Group), Route: Inhalation (whole body), Dose: 0, 5, 20, 60 ppm for 2 yr, study duration 2 yr, Dose: 0, 5, 20, 60 ppm for 2 yr, study duration 2 yr, Tumor Site: Type of Lesion: Thyroid: follicular cell adenoma (60 ppm)): active; positive | carcinogen call (Species: Rat, Strain/Sex: Crl:CD(SD)IGS BR/Male (50/Group), Route: Inhalation (whole body), Dose: 0, 5, 20, 60 ppm for 2 yr, study duration 2 yr, Dose: 0, 5, 20, 60 ppm for 2 yr, study duration 2 yr, Tumor Site: Type of Lesion: Thyroid: follicular cell adenoma (60 ppm)): active; positive

Cc1ccc(S(=O)(=O)O)cc1C
carcinogen call (Species: MOUSE, Strain/Sex: B6C3F1/FEMALE, Route: DERMAL, Dose: 0, 182, 364, 727 MG/KG IN 50% ETHANOL 5D/WK FOR 105 WK (STUDY DURATION: 105 WK), Dose: 0, 182, 364, 727 MG/KG IN 50% ETHANOL 5D/WK FOR 105 WK (STUDY DURATION: 105 WK)): inactive; negative | carcinogen call (Species: MOUSE, Strain/Sex: B6C3F1/MALE, Route: DERMAL, Dose: 0, 182, 364, 727 MG/KG IN 50% ETHANOL 5D/WK FOR 104 WK (STUDY DURATION: 104 WK), Dose: 0, 182, 364, 727 MG/KG IN 50% ETHANOL 5D/WK FOR 104 WK (STUDY DURATION: 104 WK)): inactive; negative | carcinogen call (Species: RAT, Strain/Sex: F344/FEMALE, Route: DERMAL, Dose: 0, 60, 120, 240 MG/KG IN 50% ETHANOL 5 D/WK FOR 104 WK (STUDY DURATION: 104 WK), Dose: 0, 60, 120, 240 MG/KG IN 50% ETHANOL 5 D/WK FOR 104 WK (STUDY DURATION: 104 WK)): inactive; negative | carcinogen call (Species: RAT, Strain/Sex: F344/MALE, Route: DERMAL, Dose: 0, 60, 120, 240 MG/KG IN 50% ETHANOL 5D/WK FOR 104 WK (STUDY DURATION: 104 WK), Dose: 0, 60, 120, 240 MG/KG IN 50% ETHANOL 5D/WK FOR 104 WK (STUDY DURATION: 104 WK)): inactive; negative

Cc1cc(=O)oc2c1cc(C)c1occ(C)c12
carcinogen call (Species: MOUSE, Strain/Sex: C3H/HEN/FEMALE, Route: DERMAL, Dose: 0, 250 UG IN 70% ETHANOL 3/WK FOR 48 WK (STUDY DURATION: 68 WK)): inactive; negative

CC/C=C/C=C/C=C/C=C/C=C/OC[C@@H](O)CO
carcinogen call (Species: MOUSE, Strain/Sex: ICR/FEMALE, Route: INTRAPERITONEAL, Dose: 0, 2.6 MG/KG IN DMSO ON D 1 AND D 3 THEN 0, 5.2 MG/KG IN DMSO ON D 7, 10, 14 AND (STUDY DURATION: 21 MO), Dose: 0, 2.6 MG/KG IN DMSO ON D 1 AND D 3 THEN 0, 5.2 MG/KG IN DMSO ON D 7, 10, 14 AND (STUDY DURATION: 21 MO)): inactive; negative | carcinogen call (Species: MOUSE, Strain/Sex: ICR/MALE, Route: INTRAPERITONEAL, Dose: 0, 2.6 MG/KG IN DMSO ON D 1 AND D 3 THEN 0, 5.2 MG/KG IN DMSO ON D 7, 10, 14 AND (STUDY DURATION: 21 MO), Dose: 0, 2.6 MG/KG IN DMSO ON D 1 AND D 3 THEN 0, 5.2 MG/KG IN DMSO ON D 7, 10, 14 AND (STUDY DURATION: 21 MO), Tumor Site: Type of Lesion: LIVER: ADENOMA, CARCINOMA, LUNG: ADENOMA, CARCINOMA, GLANDULAR STOMACH: ADENOCARCINOMA, SUBCUTANEOUS TISSUE: FIBROSARCOM, Tumor Site: Type of Lesion: LIVER: ADENOMA, CARCINOMA, LUNG: ADENOMA, CARCINOMA, GLANDULAR STOMACH: ADENOCARCINOMA, SUBCUTANEOUS TISSUE: FIBROSARCOM): active; positive | carcinogen call (Species: RAT, Strain/Sex: F344/MALE, Route: INTRARECTAL, Dose: 0, 5, 10 NANOMOLAR IN 0.5 ML T-E BUFFER AND METHANOL SATURATED WITH ARGON 1/WK FOR 85 WK (STUDY DURATION: 28 MO), Dose: 0, 5, 10 NANOMOLAR IN 0.5 ML T-E BUFFER AND METHANOL SATURATED WITH ARGON 1/WK FOR 85 WK (STUDY DURATION: 28 MO)): inactive; negative | carcinogen call (Species: RAT, Strain/Sex: F344/MALE, Route: INTRARECTAL, Dose: 0, 14 MG/KG IN DMSO: EMULPHOR-SALINE 34WK FOR 9 WK THEN 2/WK FOR 12 WK AND 1/WK FOR 50 WK (STUDY DURATION: 92 WK)): inactive; negative

CC(C)(c1ccc(OCC2CO2)cc1)c1ccc(OCC2CO2)cc1 (centres undefined)
carcinogen call (Species: MOUSE, Strain/Sex: CF1/FEMALE, Route: DERMAL, Dose: 0, 1, 10% IN ACETONE 2D/WK FOR 2 YR (STUDY DURATION: 2 YR), Dose: 0, 1, 10% IN ACETONE 2D/WK FOR 2 YR (STUDY DURATION: 2 YR)): inactive; negative | carcinogen call (Species: MOUSE, Strain/Sex: CF1/MALE, Route: DERMAL, Dose: 0, 1, 10% IN ACETONE 2D/WK FOR 2 YR (STUDY DURATION: 2 YR), Dose: 0, 1, 10% IN ACETONE 2D/WK FOR 2 YR (STUDY DURATION: 2 YR)): inactive; negative | carcinogen call (Species: MOUSE, Strain/Sex: CF-1/FEMALE, Route: DERMAL, Dose: 0, 1, 10% IN ACETONE (TOTAL DOSE 0.2 ML) 2/WK APPLIED TO DORSAL SKIN FOR DURATION OF STUDY (STUDY DURATION: 2 YR), Dose: 0, 1, 10% IN ACETONE (TOTAL DOSE 0.2 ML) 2/WK APPLIED TO DORSAL SKIN FOR DURATION OF STUDY (STUDY DURATION: 2 YR)): inactive; negative | carcinogen call (Species: MOUSE, Strain/Sex: CF-1/MALE, Route: DERMAL, Dose: 0, 1, 10% IN ACETONE (TOTAL DOSE 0.2 ML) 2/WK APPLIED TO DORSAL SKIN FOR DURATION OF STUDY (STUDY DURATION: 2 YR), Dose: 0, 1, 10% IN ACETONE (TOTAL DOSE 0.2 ML) 2/WK APPLIED TO DORSAL SKIN FOR DURATION OF STUDY (STUDY DURATION: 2 YR)): inactive; negative
